Tests used:
Assay type in all cases: biochemical
human JAK1 = molecular target: T1, human JAK1 (Homo sapiens, UniProt P23458); assay: JAK1 inhibition assay (polyGT substrate / Ulight-JAK1 peptide); details: recombinant human JAK1 catalytic domain; polyGT or Ulight-JAK1 peptide assay
T1 construct: catalytic domain, amino acids 866-1154; catalog number PV4774; purchased Invitrogen PV4774
How it was run: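 Two formats. PolyGT radiometric: 45 min at 30 °C, stopped with phosphoric acid, counted as cpm. Ulight-JAK1 peptide: 60 min at room temperature, stopped with Eu-anti-phosphotyrosine/EDTA, read as RFU. Percent inhibition normalised to vehicle and 10 μM staurosporine.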

human JAK3 = molecular target: T2, human JAK3 (Homo sapiens, UniProt P52333); assay: JAK3 inhibition assay; details: recombinant human JAK3 catalytic domain; polyGT substrate
T2 construct: catalytic domain (amino acids 781-1124; catalog number PV3855); purchased Invitrogen PV3855
T2 sequence (P52333 781-1124): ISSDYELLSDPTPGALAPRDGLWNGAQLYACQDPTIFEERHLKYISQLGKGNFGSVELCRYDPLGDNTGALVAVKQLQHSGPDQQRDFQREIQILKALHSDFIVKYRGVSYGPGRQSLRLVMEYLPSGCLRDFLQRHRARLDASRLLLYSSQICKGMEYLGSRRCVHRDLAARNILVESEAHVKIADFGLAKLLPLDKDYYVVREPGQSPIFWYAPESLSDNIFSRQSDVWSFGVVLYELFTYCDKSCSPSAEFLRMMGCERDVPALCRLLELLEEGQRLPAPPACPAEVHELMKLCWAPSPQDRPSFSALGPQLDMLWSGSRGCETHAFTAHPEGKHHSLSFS
Procedure: 1.3 JAK3 Inhibition Assay
0.5 ng JAK3 protein was incubated with 2.5 μg polyGT substrate (Sigma catalog number P0275) in kinase reaction buffer (25 mM Tris pH 7.5, 0.5 mM EGTA, 10 mM MgCl2, 2.5 mM DTT, 0.5 mM Na3VO4, 5 mM b-glycerolphosphate, 0.01% Triton X-100, 1 μM non-radioactive ATP, 0.25 μCi 33P-gamma-ATP (GE Healthcare, catalog number AH9968) final concentrations) with or without 5 μL containing test compound or vehicle (DMSO, 1% final concentration), in a total volume of 25 μL, in a polypropylene 96-well plate (Greiner, V-bottom). After 45 min at 30° C., reactions were stopped by adding 25 μL/well of 150 mM phosphoric acid. […] Plates were washed 6 times with 300 μL per well of a 75 mM phosphoric acid solution and the bottom of the plates was sealed. 40 μL/well of Microscint-20 was added, the top of the plates was sealed and readout was performed using the Topcount (Perkin Elmer). Kinase activity was calculated by subtracting counts per min (cpm) obtained in the presence of a positive control inhibitor (10 μM staurosporine) from cpm obtained in the presence of vehicle. The ability of a test compound to inhibit this activity was determined as:
(§1) Percentage inhibition=((cpm determined for sample with test compound present−cpm determined for sample with positive control inhibitor)divided by(cpm determined in the presence of vehicle−cpm determined for sample with positive control inhibitor))*100.
Dose dilution series were prepared for the compounds enabling the testing of dose-response effects in the JAK3 assay and the calculation of the IC50 for each compound. Each compound was routinely tested at concentration of 20 μM followed by a 1/5 serial dilution, 10 points in a final concentration of 1% DMSO.

human JAK2 = molecular target: T3, human JAK2 (Homo sapiens, UniProt O60674); assay: JAK2 inhibition assay (polyGT substrate / Ulight-JAK1 peptide); details: recombinant human JAK2 catalytic domain; polyGT or Ulight-JAK1 peptide assay
T3 construct: catalytic domain (amino acids 808-1132; catalog number PV4210); GST; purchased Invitrogen PV4210
T3 sequence (O60674 808-1132): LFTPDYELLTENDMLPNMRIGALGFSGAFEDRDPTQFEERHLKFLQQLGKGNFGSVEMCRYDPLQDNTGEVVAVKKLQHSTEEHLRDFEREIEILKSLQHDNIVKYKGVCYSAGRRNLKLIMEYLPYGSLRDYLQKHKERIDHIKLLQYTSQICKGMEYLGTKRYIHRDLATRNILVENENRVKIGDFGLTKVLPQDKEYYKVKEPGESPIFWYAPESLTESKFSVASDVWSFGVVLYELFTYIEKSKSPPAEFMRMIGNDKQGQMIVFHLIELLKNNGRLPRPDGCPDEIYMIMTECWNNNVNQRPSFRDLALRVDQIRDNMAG
How it was run: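 Radiometric: 0.025 mU JAK2 with 2.5 μg polyGT, 1 μM ATP plus ^33P-ATP in MOPS pH 7.5 buffer, 1% DMSO, 90 min at 30° C.; filter counting. Alternative TR-FRET format with Ulight-JAK1 peptide, 60 min at room temperature, Eu-anti-phosphotyrosine detection.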

human TYK2 = molecular target: T4, human TYK2 (Homo sapiens, UniProt P29597); assay: TYK2 inhibition assay; details: recombinant human TYK2 catalytic domain, polyGT substrate
T4 construct: catalytic domain (amino acids 871-1187; catalog number 08-147); purchased Carna Biosciences 08-147
T4 sequence (P29597 871-1187): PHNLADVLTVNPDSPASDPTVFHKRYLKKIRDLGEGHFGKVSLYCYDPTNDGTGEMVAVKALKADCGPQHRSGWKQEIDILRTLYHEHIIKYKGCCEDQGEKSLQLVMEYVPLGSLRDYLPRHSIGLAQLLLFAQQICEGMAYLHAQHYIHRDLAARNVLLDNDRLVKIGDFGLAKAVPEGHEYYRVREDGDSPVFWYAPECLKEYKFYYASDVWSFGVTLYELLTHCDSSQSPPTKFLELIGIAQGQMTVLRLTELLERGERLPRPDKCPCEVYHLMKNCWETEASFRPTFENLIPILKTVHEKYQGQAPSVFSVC
Procedure: 1.4 TYK2 Inhibition Assay
After 90 min at 30° C., reactions were stopped by adding 25 μL/well of 150 mM phosphoric acid. […] Plates were washed 6 times with 300 μL per well of a 75 mM phosphoric acid solution and the bottom of the plates was sealed. 40 μL/well of Microscint-20 was added, the top of the plates was sealed and readout was performed using the Topcount (Perkin Elmer). Kinase activity was calculated by subtracting counts per min (cpm) obtained in the presence of a positive control inhibitor (10 μM staurosporine) from cpm obtained in the presence of vehicle. The ability of a test compound to inhibit this activity was determined as:
as §1
Dose dilution series were prepared for the compounds enabling the testing of dose-response effects in the TYK2 assay and the calculation of the IC50 for each compound.

T1 sequence (P23458 866-1154): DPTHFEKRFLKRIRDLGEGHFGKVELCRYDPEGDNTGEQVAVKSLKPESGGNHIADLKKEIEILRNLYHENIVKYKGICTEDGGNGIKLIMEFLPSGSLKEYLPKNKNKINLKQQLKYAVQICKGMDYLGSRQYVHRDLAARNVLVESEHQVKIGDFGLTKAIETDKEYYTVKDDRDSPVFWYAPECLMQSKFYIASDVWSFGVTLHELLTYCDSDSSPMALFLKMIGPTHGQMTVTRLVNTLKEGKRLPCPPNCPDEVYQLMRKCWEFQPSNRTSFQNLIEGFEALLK

`CN(c1cc2c(cn1)ncn2C)c1ccc(C2CN(C(=O)N3CCOCC3)C2)cc1OC(F)F` [Compound 368] was tested, and the IC50 (human JAK1) was 501 to 1000 nM, the IC50 (human JAK3) was greater than 1000 nM and the IC50 (human JAK2) was greater than 1000 nM. For the same molecule, the IC50 (human TYK2) was greater than 1000 nM.
In the case of `CCc1cn(C2(CC#N)CN(C(=O)OC(C)(C)C)C2)nc1N(C)c1cc2c(cn1)ncn2C` [Compound 308, 3-Cyanomethyl-3-{4-ethyl-3-[methyl-(1-methyl-1H-imidazo[4,5-c]pyridin-6-yl)-amino]-pyrazol-1-yl}-azetidine-1-carboxylic acid tert-butyl ester], the IC50 (human JAK1) is reported as greater than 1000 nM, the IC50 (human JAK3) is reported as greater than 1000 nM and the IC50 (human JAK2) is reported as greater than 1000 nM. For the same molecule, the IC50 (human TYK2) was greater than 1000 nM.
With `CCc1ccccc1N(CCN1CCCC1)c1cc2c(cn1)ncn2C` [Compound 459, N-(2-ethylphenyl)-1-methyl-N-(2-(pyrrolidin-1-yl)ethyl)-1H-imidazo[4,5-c]pyridin-6-amine] the IC50 (human JAK1) was 101 to 500 nM, the IC50 (human JAK3) was greater than 1000 nM and the IC50 (human JAK2) was greater than 1000 nM. For the same molecule, the IC50 (human TYK2) was greater than 1000 nM.
With `CCc1ncncc1N(C)c1cc2c(cn1)ncn2C` [Compound 456, (4-Ethyl-pyrimidin-5-yl)-methyl-(1-methyl-1H-imidazo[4,5-c]pyridin-6-yl)-amine] the IC50 (human JAK1) was greater than 1000 nM, the IC50 (human JAK3) was greater than 1000 nM and the IC50 (human JAK2) was greater than 1000 nM. It also gave an IC50 (human TYK2) greater than 1000 nM.
Molecule `CCc1cc(C2(C#N)CN(S(C)(=O)=O)C2)ncc1N(C)c1cc2c(cn1)ncn2C` [Compound 458, 3-{4-Ethyl-5-[methyl-(1-methyl-1H-imidazo[4,5-c]pyridin-6-yl)-amino]-pyridin-2-yl}-1-methanesulfonyl-azetidine-3-carbonitrile] has an IC50 (human JAK1) of 0.01 to 100 nM, an IC50 (human JAK3) of 501 to 1000 nM and an IC50 (human JAK2) of 101 to 500 nM. It also gave an IC50 (human TYK2) of 501 to 1000 nM.
`CN(c1cc2c(cn1)ncn2C)c1ccc(C2CN(C(=O)N3CCCCC3)C2)cc1OC(F)F` [Compound 367, (3-{3-Difluoromethoxy-4-[methyl-(1-methyl-1H-imidazo[4,5-c]pyridin-6-yl)-amino]-phenyl}-azetidin-1-yl)-piperidin-1-yl-methanone] showed an IC50 (human JAK1) of 501 to 1000 nM, an IC50 (human JAK3) greater than 1000 nM and an IC50 (human JAK2) greater than 1000 nM. It also gave an IC50 (human TYK2) greater than 1000 nM.
`CCc1cc(CNC2CCS(=O)(=O)C2)ccc1N(C)c1cc2c(cn1)ncn2C` (stereo not shown) [Compound 300, {4-[(1,1-Dioxo-tetrahydro-thiophen-3-ylamino)-methyl]-2-ethyl-phenyl}-methyl-(1-methyl-1H-imidazo[4,5-c]pyridin-6-yl)-amine] gave an IC50 (human JAK1) of 0.01 to 100 nM, an IC50 (human JAK3) greater than 1000 nM and an IC50 (human JAK2) of 101 to 500 nM. The IC50 (human TYK2) was 501 to 1000 nM.
`CCc1cc(N2CC(N)C2)ncc1N(C)c1cc2c(cn1)ncn2C` [Compound 442, [6-(3-Amino-azetidin-1-yl)-4-ethyl-pyridin-3-yl]-methyl-(1-methyl-1H-imidazo[4,5-d]pyridin-6-yl)-amine] gave an IC50 (human JAK1) of 101 to 500 nM, an IC50 (human JAK3) greater than 1000 nM and an IC50 (human JAK2) greater than 1000 nM. For the same molecule, the IC50 (human TYK2) was greater than 1000 nM.
Molecule `CN(c1ccc(OC(F)(F)F)cc1)c1cc2c(cn1)ncn2C` [Compound 1, N,1-dimethyl-N-(4-(trifluoromethoxy)phenyl)-1H-imidazo[4,5-c]pyridin-6-amine] has an IC50 (human JAK1) of 101 to 500 nM, an IC50 (human JAK3) greater than 1000 nM and an IC50 (human JAK2) greater than 1000 nM. The IC50 (human TYK2) was greater than 1000 nM.
`CCc1cc(N2CCC(C#N)C2)ncc1N(C)c1cc2c(cn1)ncn2C` (stereo not shown) [Compound 418, 1-{4-Ethyl-5-[methyl-(1-methyl-1H-imidazo[4,5-c]pyridin-6-yl)-amino]-pyridin-2-yl}-pyrrolidine-3-carbonitrile] was tested, and the IC50 (human JAK1) was 0.01 to 100 nM, the IC50 (human JAK3) was 0.01 to 100 nM and the IC50 (human JAK2) was 0.01 to 100 nM. It also gave an IC50 (human TYK2) of 0.01 to 100 nM.
`CCc1cc(C2CN(C(=O)C3(C#N)CC3)C2)ccc1N(C)c1cc2c(cn1)ncn2C` [Compound 348, 1-(3-{3-Ethyl-4-[methyl-(1-methyl-1H-imidazo[4,5-c]pyridin-6-yl)-amino]-phenyl}-azetidine-1-carbonyl)-cyclopropanecarbonitrile] showed an IC50 (human JAK1) of 101 to 500 nM, an IC50 (human JAK3) greater than 1000 nM and an IC50 (human JAK2) of 501 to 1000 nM. For the same molecule, the IC50 (human TYK2) was greater than 1000 nM.
Molecule `Cc1cc(OCc2cccnc2)ccc1N(C)c1cc2c(cn1)ncn2C` [Compound 55, N,1-dimethyl-N-(2-methyl-4-(pyridin-3-ylmethoxy)phenyl)-1H-imidazo[4,5-c]pyridin-6-amine] has an IC50 (human JAK1) of 101 to 500 nM, an IC50 (human JAK3) greater than 1000 nM and an IC50 (human JAK2) greater than 1000 nM. It also gave an IC50 (human TYK2) greater than 1000 nM.
Work on `CN(c1cc2c(cn1)ncn2C)c1cc(C2CC2)nn1C` [Compound 306, (5-Cyclopropyl-2-methyl-2H-pyrazol-3-yl)-methyl-(1-methyl-1H-imidazo[4,5-c]pyridin-6-yl)-amine] yielded an IC50 (human JAK1) greater than 1000 nM, an IC50 (human JAK3) greater than 1000 nM and an IC50 (human JAK2) greater than 1000 nM. The IC50 (human TYK2) was greater than 1000 nM.
`CN(c1cc2c(cn1)ncn2C)c1ccccc1Cl` [Compound 68, N-(2-Chlorophenyl)-N,1-dimethyl-1H-imidazo[4,5-c]pyridin-6-amine] showed an IC50 (human JAK1) of 101 to 500 nM, an IC50 (human JAK3) greater than 1000 nM and an IC50 (human JAK2) greater than 1000 nM. It also gave an IC50 (human TYK2) of 501 to 1000 nM.
With `CN(c1cc2c(cn1)ncn2C)c1c(F)cc(C2CN(C(=O)OC(C)(C)C)C2)cc1F` [Compound 408, 3-{3,5-Difluoro-4-[methyl-(1-methyl-1H-imidazo[4,5-c]pyridin-6-yl)-amino]-phenyl)-azetidine-1-carboxylic acid tert-butyl ester] the IC50 (human JAK1) was greater than 1000 nM, the IC50 (human JAK3) was greater than 1000 nM and the IC50 (human JAK2) was greater than 1000 nM. It also gave an IC50 (human TYK2) greater than 1000 nM.
`CCc1cc(N2CC(C(=O)OC)C2)ncc1N(C)c1cc2c(cn1)ncn2C` [Compound 399, 1-{4-Ethyl-5-[methyl-(1-methyl-1H-imidazo[4,5-c]pyridin-6-yl)-amino]-pyridin-2-yl}-azetidine-3-carboxylic acid methyl ester] gave an IC50 (human JAK1) of 0.01 to 100 nM, an IC50 (human JAK3) greater than 1000 nM and an IC50 (human JAK2) of 101 to 500 nM. The IC50 (human TYK2) was greater than 1000 nM.
For `CCN(c1ccc2occc2c1)c1cc2c(cn1)ncn2C` [Compound 4, N-(benzofuran-5-yl)-N-ethyl-1-methyl-1H-imidazo[4,5-c]pyridin-6-amine], the IC50 (human JAK1) was 101 to 500 nM, the IC50 (human JAK3) was greater than 1000 nM and the IC50 (human JAK2) was greater than 1000 nM. It also gave an IC50 (human TYK2) of 101 to 500 nM.
In the case of `CCc1cc(N2CC(NS(C)(=O)=O)C2)ncc1N(C)c1cc2c(cn1)ncn2C` [Compound 443, N-(1-{4-Ethyl-5-[methyl-(1-methyl-1H-imidazo[4,5-c]pyridin-6-yl)-amino]-pyridin-2-yl}-azetidin-3-yl)-methAnesulfonamide], the IC50 (human JAK1) is reported as 0.01 to 100 nM, the IC50 (human JAK3) is reported as 101 to 500 nM and the IC50 (human JAK2) is reported as 0.01 to 100 nM. The IC50 (human TYK2) was 0.01 to 100 nM.
Work on `CCc1cc(C#N)c(C(F)(F)F)cc1N(C)c1cc2c(cn1)ncn2C` [Compound 321, 5-Ethyl-4-[methyl-(1-methyl-1H-imidazo[4,5-c]pyridin-6-yl)-amino]-2-trifluoromethyl-benzonitrile] yielded an IC50 (human JAK1) greater than 1000 nM, an IC50 (human JAK3) greater than 1000 nM and an IC50 (human JAK2) greater than 1000 nM. The IC50 (human TYK2) was greater than 1000 nM.
With `CCc1ccccc1N(CCC#N)c1cc2c(cn1)ncn2C` [Compound 464, 3-((2-ethylphenyl)(1-methyl-1H-imidazo[4,5-c]pyridin-6-yl)amino)propanenitrile] the IC50 (human JAK3) was greater than 1000 nM, the IC50 (human JAK2) was greater than 1000 nM and the IC50 (human TYK2) was greater than 1000 nM.

Reference: patent US20130217664A1, “NOVEL COMPOUNDS USEFUL FOR THE TREATMENT OF DEGENERATIVE AND INFLAMMATORY DISEASES” (priority 2012, published 2013)
